Tests used:
[1] = Solubility in heptane (absorbance at maximum of saturated solution), chromium metal-azo complexes; type: physicochemical; conditions: room temperature (22° C.)
Description: The samples were prepared by shaking the dye in heptane for several hours, allowing the samples to sit overnight, and filtering through a plug of glass wool to remove particulates.

[2] = Solubility in heptane (absorbance at maximum), four-coordinate platinum metal-azo complexes; type: physicochemical; conditions: ambient temperature
Description: ^b result obtained by measuring in a 1 cm cell and dividing result by
^c estimate based on fitting the spectrum in the 510-550 nm region.

[3] = Thermogravimetric analysis, loss of pyridine ligand; type: physicochemical
[4] = reported to decompose, apparently without melting; cited from earlier work
[5] = Differential Scanning Calorimeter scan, melting behaviour; conditions: Differential Scanning Calorimeter scan of analytically pure compound
Description: Melting points of the metal complexes were determined using a Thomas-Hoover melting point apparatus or by differential scanning calorimetry at a heating rate of 5° C. per minute.

Row | Compound | Absorbance at Maximum in Heptane/1 mm Cell [1] | Temperature of 50% Loss of Pyridine Ligand [3] [°C] | DSC melting behaviour [5] | further results
1 | CC(=O)[CH-]C(C)=O.[Cr+3].[O-]c1ccccc1N=Nc1ccccc1[O-].c1ccncc1 [Compound 28, [[2,2-azobis[phenolato]](-2)-N,O,O](pyridine)(2,4-pentanedionato-O,O)chromium] | 0.022 | – | – | –
2 | [[2,2-azobis[phenolato]](-2)-N,O,O](4-n-octylpyridine)platinum [Compound 17] | – | – | – | Absorbance at Maximum in Heptane/1 mm Cell [2]: 2.49
3 | CC(=O)C=C(C)[O-].CCc1ccncc1.[Cr+3].[O-]c1ccccc1N=Nc1ccccc1[O-] [Compound 31, [[2,2-azobis[phenolato]](-2)-N,O,O](2,4-pentanedionato-O,O)(4-ethylpyridine)chromium] | 0.644 | – | – | –
4 | [Cu+2].[O-]c1ccccc1N=Nc1ccccc1[O-].c1ccncc1 [Compound 8, [[2,2-azobis[phenolato]](-2)-N,O,O](pyridine)copper] | – | 133 | – | decomposition temperature [4]: 310 °C
5 | CCCCC(CCCC)c1ccncc1.[Cu+2].[O-]c1ccccc1N=Nc1ccccc1[O-] [Compound 9, [[2,2-azobis[phenolato]](-2)-N,O,O](4-(5-nonylpyridine))copper] | – | 148 | has a classic melting transition associated with organic-like compounds | –
6 | [1-[5-N,N-dibutylsulfonamido-2-hydroxyphenyl]azo-2-naphthalenolato(-2)](pyridine)copper [Compound 10] | – | 180 | does not exhibit a clean melt | –
7 | [[2,2-azobis[phenolato]](-2)-N,O,O](2,4-pentanedionato-O,O)(ethyl isonicotinate)chromium [Compound 33] | 0.634 | – | – | –
8 | [O-]c1ccccc1N=Nc1ccccc1[O-].[Pt+2].c1ccncc1 [Pt(DHAB)Py, [[2,2azobis[phenolato]](2)-N,O,O](pyridine)platinum, reference compound] | – | – | – | Absorbance at Maximum in Heptane/1 mm Cell [2]: 0.41
9 | CC(=O)C=C(C)[O-].CCOC(=O)c1cccnc1.[Cr+3].[O-]c1ccccc1N=Nc1ccccc1[O-] [Compound 32, [[2,2-azobis[phenolato]](-2)-N,O,O](2,4-pentanedionato-O,O)(ethyl nicotinate)chromium] | 0.362 | – | – | –
10 | CCCCC(CCCC)c1ccncc1.CCCCN(CCCC)S(=O)(=O)c1ccc([O-])c(N=Nc2c([O-])ccc3ccccc23)c1.[Cu+2] [Compound 11, [1-[5-N,N-dibutylsulfonamido-2-hydroxyphenyl]azo-2-naphthalenolato(-2)](4-(5-nonylpyridine))copper] | – | 223 | has a classic melting transition associated with organic-like compounds | –

— patent US5314998A, “Organic solvent-soluble metal-azo and metal-azomethine dyes” (Minnesota Mining and Manufacturing Company, priority 1992, dated 1994)
